Measured values reported in ChEMBL document CHEMBL4819077, “Design, synthesis, and biological evaluation of diosgenin-indole derivatives as dual-functional agents for the treatment of Alzheimer's disease” (Eur J Med Chem, 2021).
Calls of active or inactive are those of the source. The calls are words filed in the database; no cut-off is given here.

Legend:
SH-SY5Y [1] = experiment: Cytotoxicity against human SH-SY5Y cells assessed as reduction in cell viability measured after 24 hrs by MTT assay; type: cell-based
SH-SY5Y [2] = experiment: Neuroprotection against Abeta-induced oxidative stress in human SH-SY5Y cells assessed as cell protection at 10 uM incubated for 2 hr before Abeta(1-42) challenge and measured after 24 hrs by MTT assay; type: functional; conditions: time 26 hrs
SH-SY5Y [3] = experiment: Neuroprotection against H202-induced oxidative stress in human SH-SY5Y cells assessed as cell protection at 10 uM preincubated for 2 hr before H202 challenge and measured after 24 hrs by MTT assay; type: functional
SH-SY5Y [4] = experiment: Neuroprotection against 6-OHDA-induced oxidative stress in human SH-SY5Y cells assessed as cell protection at 10 uM preincubated for 2 hr before 6-OHDA challenge and measured after 24 hrs by MTT assay; type: functional; conditions: time 26 hrs
Mus musculus [5] = experiment: Neuroprotection against icv infused amyloid beta (1 to 42)-induced ICR mouse model of Alzheimer's disease assessed as rescue of pyknotic nucleus in hippocampal at to 2 mg/kg, po administered daily for 7 days by HE staining; type: functional, organism-based; conditions: time 7.0 day
Mus musculus [6] = experiment: Improvement in learning and spatial memory in icv infused amyloid beta (1 to 42)-induced ICR mouse model of Alzheimer's disease assessed as improved target quadrant exploration time at to 2 mg/kg, po administered daily for 7 days starting from 7 days post surgery by Morris water maze test; type: functional, organism-based; conditions: time 7.0 day
Mus musculus [7] = experiment: Neuroprotection against icv infused amyloid beta (1 to 42)-induced ICR mouse model of Alzheimer's disease assessed as rescue of decrease neuronal cells in hippocampal at to 2 mg/kg, po administered daily for 7 days by HE staining; type: functional, organism-based; conditions: time 7.0 day
[8] = Acute toxicity in ICR mouse assessed as mortality at 500 mg/kg, po administered as single dose measured after 14 days; type: organism-based; conditions: in vivo, 336 h, time 14 day
[9] = Acute toxicity in ICR mouse assessed as body weight loss at 500 mg/kg, po administered as single dose measured after 14 days; type: organism-based; conditions: in vivo, 336 h, time 14 day
Mus musculus [10] = experiment: Neuroprotection against icv infused amyloid beta (1 to 42)-induced ICR mouse model of Alzheimer's disease assessed as rescue of pyknotic nucleus in hippocampal at to 4 to 20 mg/kg, po administered daily for 7 days by HE staining; type: functional, organism-based; conditions: dose 4-20 mg/kg, time 7.0 day
[11] = Acute toxicity in ICR mouse assessed as abnormalities in kidney at 500 mg/kg, po administered […] 14 days by HE staining based assay; type: organism-based; conditions: in vivo, 336 h, time 14 day
SH-SY5Y [12] = experiment: Neuroprotection against 6-OHDA-induced cytotoxicity in human SH-SY5Y cells assessed as increase in cell viability at 100 uM incubated for 2 hr before 6-OHDA challenge and measured after 24 hrs by MTT assay; type: functional, cell-based; conditions: time 26.0 hrs
SH-SY5Y [13] = experiment: Neuroprotection against Abeta-induced cytotoxicity in human SH-SY5Y cells assessed as increase in cell viability at 100 uM incubated for 2 hr before Abeta(1-42) challenge and measured after 24 hrs by MTT assay; type: functional, cell-based
[14] = Acute toxicity in ICR mouse assessed as abnormalities in spleen at 500 mg/kg, po administered […] 14 days by HE staining based assay; type: organism-based; conditions: in vivo, 336 h, time 14 day
SH-SY5Y [15] = experiment: Neuroprotection against H202-induced human SH-SY5Y cell damage assessed as decrease in ROS accumulation at 10 uM incubated for 2 hr before H202 challenge and measured after 24 hrs by DCFDA staining based fluorescence microscopy; type: functional; conditions: time 26.0 hrs
[16] = Acute toxicity in ICR mouse assessed as abnormal behaviors at 500 mg/kg, po administered as single dose measured after 14 days; type: organism-based; conditions: in vivo, 336 h, time 14 day
SH-SY5Y [17] = experiment: Neuroprotection against Abeta-induced cytotoxicity in human SH-SY5Y cells assessed as increase in cell viability upto 50 uM incubated for 2 hr before Abeta(1-42) challenge and measured after 24 hrs by MTT assay; type: functional, cell-based; conditions: dose microM <=50, time 2.0 hrs
SH-SY5Y [18] = experiment: Neuroprotection against H202-induced cytotoxicity in human SH-SY5Y cells assessed as increase in cell viability upto 50 uM incubated for 2 hr before H202 challenge and measured after 24 hrs by MTT assay; type: functional, cell-based; conditions: dose microM <=50, time 2.0 hrs
SH-SY5Y [19] = experiment: Neuroprotection against H202-induced cytotoxicity in human SH-SY5Y cells assessed as increase in cell viability at 100 uM incubated for 2 hr before H202 challenge and measured after 24 hrs by MTT assay; type: functional, cell-based; conditions: time 26.0 hrs
SH-SY5Y [20] = experiment: Neuroprotection against 6-OHDA-induced cytotoxicity in human SH-SY5Y cells assessed as increase in cell viability upto 50 uM incubated for 2 hr before 6-OHDA challenge and measured after 24 hrs by MTT assay; type: functional, cell-based; conditions: dose microM <=50, time 2.0 hrs
SH-SY5Y [21] = experiment: Neuroprotection against H202-induced human SH-SY5Y cell damage assessed as decrease in ROS accumulation at 50 uM incubated for 2 hr before H202 challenge and measured after 24 hrs by DCFDA staining based fluorescence microscopy; type: functional; conditions: time 26.0 hrs
Mus musculus [22] = experiment: Improvement in learning and spatial memory in icv infused amyloid beta (1 to 42)-induced ICR mouse model of Alzheimer's disease assessed as improved target quadrant exploration time at 4 to 20 mg/kg, po administered daily for 7 days starting from 7 days post surgery by Morris water maze test; type: functional, organism-based; conditions: dose 4-20 mg/kg, time 7.0 day
Mus musculus [23] = experiment: Neuroprotection against icv infused amyloid beta (1 to 42)-induced ICR mouse model of Alzheimer's disease assessed as rescue of decrease neuronal cells in hippocampal at to 4 to 20 mg/kg, po administered daily for 7 days by HE staining; type: functional, organism-based; conditions: dose 4-20 mg/kg, time 7.0 day
[24] = Acute toxicity in ICR mouse assessed as abnormalities in liver at 500 mg/kg, po administered […] 14 days by HE staining based assay; type: organism-based; conditions: in vivo, 336 h, time 14 day
[25] = Acute toxicity in ICR mouse assessed as abnormalities in lung at 500 mg/kg, po administered […] 14 days by HE staining based assay; type: organism-based; conditions: in vivo, 336 h, time 14 day
[26] = Acute toxicity in ICR mouse assessed as abnormalities in heart at 500 mg/kg, po administered […] 14 days by HE staining based assay; type: organism-based; conditions: in vivo, 336 h, time 14 day

Row | SMILES | Activity (SH-SY5Y [1]) | Activity (SH-SY5Y [2]) [%] | Activity (SH-SY5Y [3]) [%] | Activity (SH-SY5Y [4]) [%] | other results
1 | C[C@@H]1CC[C@@]2(OC1)O[C@H]1C[C@H]3[C@@H]4CCc5cc(OC(=O)NCCc6c[nH]c7ccc(F)cc67)ccc5[C@H]4CC[C@]3(C)[C@H]1[C@@H]2C | Non-Toxic | 44.8 | 43.4 | 47.7 | –
2 | C[C@@H]1CC[C@@]2(OC1)O[C@H]1C[C@H]3[C@@H]4CCc5cc(OC(=O)NCCc6c[nH]c7cc(F)ccc67)ccc5[C@H]4CC[C@]3(C)[C@H]1[C@@H]2C | Non-Toxic | 42.5 | 35.8 | 40.2 | –
3 | Cc1[nH]c2ccccc2c1CCNC(=O)Oc1ccc2c(c1)CC[C@@H]1[C@@H]2CC[C@]2(C)[C@@H]3[C@H](C[C@@H]12)O[C@]1(CC[C@@H](C)CO1)[C@H]3C | Non-Toxic | – | 31.1 | 34.4 | –
4 | COc1cc2c(cc1OC)C(=O)C(CC1CCN(Cc3ccccc3)CC1)C2 (stereo not given) | – | – | – | – | Activity (Mus musculus [5]): Active; Activity (Mus musculus [6]): Active; Activity (Mus musculus [7]): Active
5 | COc1ccc2c(CCNC(=O)Oc3ccc4c(c3)CC[C@@H]3[C@@H]4CC[C@]4(C)[C@@H]5[C@H](C[C@@H]34)O[C@]3(CC[C@@H](C)CO3)[C@H]5C)c[nH]c2c1 | Non-Toxic | 43.7 | 50 | 47.7 | –
6 | COc1ccc2[nH]cc(CC(C)NC(=O)Oc3ccc4c(c3)CC[C@@H]3[C@@H]4CC[C@]4(C)[C@@H]5[C@H](C[C@@H]34)O[C@]3(CC[C@@H](C)CO3)[C@H]5C)c2c1 (stereo not given in full) | Non-Toxic | 37.2 | 43.6 | 25.8 | –
7 | COc1ccc2[nH]cc(CC(=O)Oc3ccc4c(c3)CC[C@@H]3[C@@H]4CC[C@]4(C)[C@@H]5[C@H](C[C@@H]34)O[C@]3(CC[C@@H](C)CO3)[C@H]5C)c2c1 | Non-Toxic | 30.4 | 26.9 | 57.4 | –
8 | Cc1[nH]c2ccccc2c1CC(=O)Oc1ccc2c(c1)CC[C@@H]1[C@@H]2CC[C@]2(C)[C@@H]3[C@H](C[C@@H]12)O[C@]1(CC[C@@H](C)CO1)[C@H]3C | Non-Toxic | – | 22.7 | 30.5 | –
9 | Cc1ccc2[nH]cc(CC(=O)Oc3ccc4c(c3)CC[C@@H]3[C@@H]4CC[C@]4(C)[C@@H]5[C@H](C[C@@H]34)O[C@]3(CC[C@@H](C)CO3)[C@H]5C)c2c1 | Non-Toxic | – | 14.6 | 18.8 | –
10 | C[C@@H]1CC[C@@]2(OC1)O[C@H]1C[C@H]3[C@@H]4CCc5cc(OC(=O)Cc6c[nH]c7cc(Cl)ccc67)ccc5[C@H]4CC[C@]3(C)[C@H]1[C@@H]2C | Non-Toxic | – | 13.4 | 10.9 | –
11 | C[C@@H]1CC[C@@]2(OC1)O[C@H]1C[C@H]3[C@@H]4CC=C5C[C@@H](O)CC[C@]5(C)[C@H]4CC[C@]3(C)[C@H]1[C@@H]2C [DISOGENIN] | – | 7.4 | 9.2 | 14.2 | –
12 | COc1ccc2[nH]cc(CCNC(=O)Oc3ccc4c(c3)CC[C@@H]3[C@@H]4CC[C@]4(C)[C@@H]5[C@H](C[C@@H]34)O[C@]3(CC[C@@H](C)CO3)[C@H]5C)c2c1 | Non-Toxic | 54.4 | 52.9 | 38.4 | Activity [8]: Non-Toxic; Activity [9]: Non-Toxic; Activity (Mus musculus [10]): Active; Activity [11]: Non-Toxic; Activity (SH-SY5Y [12]): inactive; Activity (SH-SY5Y [13]): inactive; Activity [14]: Non-Toxic; Activity (SH-SY5Y [15]): Active; Activity [16]: Non-Toxic; Activity (SH-SY5Y [17]): Active; Activity (SH-SY5Y [18]): Active; Activity (SH-SY5Y [19]): inactive; Activity (SH-SY5Y [20]): Active; Activity (SH-SY5Y [21]): inactive; Activity (Mus musculus [22]): Active; Activity (Mus musculus [23]): Active; Activity [24]: Non-Toxic; Activity [25]: Non-Toxic; Activity [26]: Non-Toxic
13 | C[C@@H]1CC[C@@]2(OC1)O[C@H]1C[C@H]3[C@@H]4CCc5cc(OC(=O)Cc6c[nH]c7ccc(Br)cc67)ccc5[C@H]4CC[C@]3(C)[C@H]1[C@@H]2C | Non-Toxic | – | 15.8 | 4.2 | –
14 | C[C@@H]1CC[C@@]2(OC1)O[C@H]1C[C@H]3[C@@H]4CCc5cc(OC(=O)Cc6c[nH]c7ccc(F)cc67)ccc5[C@H]4CC[C@]3(C)[C@H]1[C@@H]2C | Non-Toxic | – | 13.3 | 20.2 | –
15 | C[C@@H]1CC[C@@]2(OC1)O[C@H]1C[C@H]3[C@@H]4CCc5cc(OC(=O)NCCc6c[nH]c7ccc(Cl)cc67)ccc5[C@H]4CC[C@]3(C)[C@H]1[C@@H]2C | Non-Toxic | – | 38.6 | 15.8 | –
16 | COc1ccc2[nH]c(C)c(CC(=O)Oc3ccc4c(c3)CC[C@@H]3[C@@H]4CC[C@]4(C)[C@@H]5[C@H](C[C@@H]34)O[C@]3(CC[C@@H](C)CO3)[C@H]5C)c2c1 | Non-Toxic | 26.9 | 37.7 | 42.3 | –
17 | Cc1ccc2[nH]cc(CCNC(=O)Oc3ccc4c(c3)CC[C@@H]3[C@@H]4CC[C@]4(C)[C@@H]5[C@H](C[C@@H]34)O[C@]3(CC[C@@H](C)CO3)[C@H]5C)c2c1 | Non-Toxic | 34.2 | 49.1 | 27.7 | –
18 | COc1ccc2c(CC(=O)Oc3ccc4c(c3)CC[C@@H]3[C@@H]4CC[C@]4(C)[C@@H]5[C@H](C[C@@H]34)O[C@]3(CC[C@@H](C)CO3)[C@H]5C)c[nH]c2c1 | Toxic | – | – | – | –
19 | C[C@@H]1CC[C@@]2(OC1)O[C@H]1C[C@H]3[C@@H]4CCc5cc(OC(=O)NCCc6c[nH]c7ccc(Br)cc67)ccc5[C@H]4CC[C@]3(C)[C@H]1[C@@H]2C | Non-Toxic | – | 29.6 | 27.9 | –
20 | C[C@@H]1CC[C@@]2(OC1)O[C@H]1C[C@H]3[C@@H]4CCc5cc(OC(=O)NCCc6c[nH]c7ccccc67)ccc5[C@H]4CC[C@]3(C)[C@H]1[C@@H]2C | Non-Toxic | 42.7 | 21.5 | 40.6 | –
21 | C[C@@H]1CC[C@@]2(OC1)O[C@H]1C[C@H]3[C@@H]4CCc5cc(OC(=O)Cc6c[nH]c7ccccc67)ccc5[C@H]4CC[C@]3(C)[C@H]1[C@@H]2C | Non-Toxic | 20.6 | 18.4 | 61.1 | –
